Test results from the supplement of paper PMC12698765.
± gives the standard deviation of the averaged measurements.

Legend:
[1] = test system: 409B2 hiPSC (iCRISPR Cas9, FRMD7 editing); assay: MMEJ-attributed deletion frequency relative to solvent control (fold (ratio to mock)); higher = more MMEJ outcomes
Description: (§1)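 Subset screen of 55 drugs tested at 5 concentrations around the effective screening dose, in 409B2 iCRISPR Cas9 hiPSCs editing FRMD7 with a ssDNA donor. Drugs were applied for 24 h. Viability was read by resazurin and editing outcomes by amplicon sequencing (HDR, NHEJ <2 bp microhomology, MMEJ ≥2 bp microhomology). Values are relative to solvent mock controls; two biological replicates.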

[2] = test system: 409B2 hiPSC (iCRISPR Cas9, FRMD7 editing); assay: HDR (precise edit) frequency relative to solvent control (fold (ratio to mock)); higher = more homology-directed repair outcomes
Description: as §1

[3] = test system: 409B2 hiPSC (iCRISPR Cas9, FRMD7 editing); assay: NHEJ-attributed indel frequency relative to solvent control (fold (ratio to mock)); higher = more NHEJ outcomes
Description: as §1

[4] = test system: 409B2 hiPSC (iCRISPR Cas9, FRMD7 editing); assay: cell survival relative to solvent control (fold (ratio to mock)); higher = more surviving cells
Description: as §1

SMILES | MMEJ-attributed deletion frequency ([1]; 20 nM) | MMEJ-attributed deletion frequency ([1]; 50 nM) | MMEJ-attributed deletion frequency ([1]; 100 nM) | MMEJ-attributed deletion frequency ([1]; 200 nM) | MMEJ-attributed deletion frequency ([1]; 500 nM) | HDR ([2]; 20 nM) | HDR ([2]; 50 nM) | HDR ([2]; 100 nM) | HDR ([2]; 200 nM) | HDR ([2]; 500 nM) | NHEJ-attributed indel frequency ([3]; 20 nM) | NHEJ-attributed indel frequency ([3]; 50 nM) | NHEJ-attributed indel frequency ([3]; 100 nM) | NHEJ-attributed indel frequency ([3]; 200 nM) | NHEJ-attributed indel frequency ([3]; 500 nM) | cell survival ([4]; 20 nM) | cell survival ([4]; 50 nM) | cell survival ([4]; 100 nM) | cell survival ([4]; 200 nM) | cell survival ([4]; 500 nM) | further results
NCCS [2-Aminoethanethiol] (in DMSO) | 0.917 ± 0.035 | 0.862 ± 0.013 | 0.932 ± 0.18 | 0.976 ± 0.074 | 1.04 ± 0.19 | 1.073 ± 0.0014 | 1.05 ± 0.08 | 0.984 ± 0.019 | 1.12 ± 0.029 | 0.949 ± 0.16 | 0.979 ± 0.0017 | 1.003 ± 0.0053 | 0.9962 ± 0.0046 | 1 ± 0.022 | 1.02 ± 0.052 | 0.948 | 1.07 | 0.956 | 1.08 | 0.899 | 
CC(=O)O[C@@]12CO[C@@H]1C[C@@H](O)[C@@]1(C)C(=O)[C@H](O)C3=C(C)[C@@H](O)C[C@@](O)([C@@H](OC(=O)c4ccccc4)[C@H]21)C3(C)C [10-DAB (10-Deacetylbaccatin)] (in DMSO) |  |  |  | 1.06 ± 0.14 | 1.02 ± 0.049 |  |  |  | 1.063 ± 0.0036 | 1 ± 0.049 |  |  |  | 0.906 ± 0.017 | 0.983 ± 0.014 |  |  |  | 0.914 | 1.06 | MMEJ-attributed deletion frequency ([1]; 1000 nM): 0.936 ± 0.083; MMEJ-attributed deletion frequency ([1]; 2000 nM): 0.561 ± 0.18; MMEJ-attributed deletion frequency ([1]; 5000 nM): 0.4879 ± 0.0029; HDR ([2]; 1000 nM): 0.816 ± 0.17; HDR ([2]; 2000 nM): 0.304 ± 0.013; HDR ([2]; 5000 nM): 0.339 ± 0.06; NHEJ-attributed indel frequency ([3]; 1000 nM): 0.918 ± 0.075; NHEJ-attributed indel frequency ([3]; 2000 nM): 0.488 ± 0.08; NHEJ-attributed indel frequency ([3]; 5000 nM): 0.522 ± 0.1; cell survival ([4]; 1000 nM): 0.177; cell survival ([4]; 2000 nM): 0.00356; cell survival ([4]; 5000 nM): 0.00663
CC[C@@]1(O)C(=O)OCc2c1cc1n(c2=O)Cc2cc3cc(O)ccc3nc2-1 [10-Hydroxycamptothecin] (in DMSO) | 0.686 ± 0.039 | 0.286 ± 0.059 | 0.389 ± 0.0056 | 0.546 ± 0.05 | 0.474 ± 0.22 | 0.141 ± 0.075 | 0.115 ± 0.032 | 0.106 ± 0.03 | 0.0697 ± 0.015 | 0.109 ± 0.033 | 0.393 ± 0.053 | 0.378 ± 0.0062 | 0.333 ± 0.045 | 0.267 ± 0.025 | 0.208 ± 0.021 | 0.0133 | -0.00908 | -0.00864 | -0.0102 | -0.000182 | 
C=CC[C@]1(O)CC[C@H]2[C@@H]3CCC4=CC(=O)CCC4=C3C=C[C@@]21C [Altrenogest] (in DMSO) | 1 ± 0.085 | 0.963 ± 0.12 | 1.02 ± 0.12 | 0.888 ± 0.14 | 0.98 ± 0.18 | 1.08 ± 0.065 | 1.08 ± 0.06 | 1.024 ± 0.0079 | 1.048 ± 0.0023 | 1.01 ± 0.088 | 0.9775 ± 0.0069 | 1.007 ± 0.0051 | 1.007 ± 0.0033 | 1 ± 0.038 | 1.02 ± 0.036 | 1.01 | 1.11 | 0.87 | 1.05 | 1.06 | 
CO[C@H]1O[C@@H]2O[C@@]3(C)CC[C@H]4[C@H](C)CC[C@@H]([C@H]1C)[C@@]24OO3 [Artemether (SM-224)] (in DMSO) |  |  |  | 0.853 ± 0.13 | 0.935 ± 0.072 |  |  |  | 1.06 ± 0.036 | 1.13 ± 0.018 |  |  |  | 0.983 ± 0.012 | 0.976 ± 0.022 |  |  |  | 0.947 | 1.23 | MMEJ-attributed deletion frequency ([1]; 1000 nM): 0.804 ± 0.037; MMEJ-attributed deletion frequency ([1]; 2000 nM): 0.907 ± 0.14; MMEJ-attributed deletion frequency ([1]; 5000 nM): 0.946 ± 0.026; HDR ([2]; 1000 nM): 1.123 ± 0.0055; HDR ([2]; 2000 nM): 1.09 ± 0.11; HDR ([2]; 5000 nM): 1.17 ± 0.15; NHEJ-attributed indel frequency ([3]; 1000 nM): 0.958 ± 0.011; NHEJ-attributed indel frequency ([3]; 2000 nM): 1 ± 0.024; NHEJ-attributed indel frequency ([3]; 5000 nM): 1.02 ± 0.037; cell survival ([4]; 1000 nM): 0.644; cell survival ([4]; 2000 nM): 1.09; cell survival ([4]; 5000 nM): 1.03
Cc1ccc(NC(=O)c2ccc(CN3CC[C@H](N(C)C)C3)c(C(F)(F)F)c2)cc1Nc1nccc(-c2cncnc2)n1 [Bafetinib (INNO-406)] (in DMSO) |  |  |  |  |  |  |  |  |  |  |  |  |  |  |  |  |  |  |  |  | MMEJ-attributed deletion frequency ([1]; 2000 nM): 1.04 ± 0.012; MMEJ-attributed deletion frequency ([1]; 5000 nM): 0.89 ± 0.082; MMEJ-attributed deletion frequency ([1]; 10000 nM): 1.13 ± 0.045; MMEJ-attributed deletion frequency ([1]; 20000 nM): 1.32 ± 0.11; MMEJ-attributed deletion frequency ([1]; 50000 nM): 0.621; HDR ([2]; 2000 nM): 1.04 ± 0.053; HDR ([2]; 5000 nM): 1.066 ± 0.0049; HDR ([2]; 10000 nM): 1.03 ± 0.1; HDR ([2]; 20000 nM): 0.775 ± 0.27; HDR ([2]; 50000 nM): 0.282; NHEJ-attributed indel frequency ([3]; 2000 nM): 0.9931 ± 0.002; NHEJ-attributed indel frequency ([3]; 5000 nM): 1.004 ± 0.0057; NHEJ-attributed indel frequency ([3]; 10000 nM): 1.06 ± 0.025; NHEJ-attributed indel frequency ([3]; 20000 nM): 1.03 ± 0.11; NHEJ-attributed indel frequency ([3]; 50000 nM): 0.525; cell survival ([4]; 2000 nM): 1.07; cell survival ([4]; 5000 nM): 1.36; cell survival ([4]; 10000 nM): 0.818; cell survival ([4]; 20000 nM): 0.096; cell survival ([4]; 50000 nM): 0.0107
